# From patent US5225528A, “Cyclic hexapeptide oxytocin antagonists” (priority 1990, dated 1993)
# Counter-ions that a name gives are not always drawn. Like-named read-outs stand apart in the source and are kept apart here. Numbered stars: 1 amine (or outer) side, 2 acyl side, 3 side chain; on linkers, the order of the positions; unused ones are H or OH. Square brackets hold non-standard residues; d marks the D form. Peptide text beside a SMILES is read from it. * marks the point of attachment. dPip(4-aza,4-Cbz) = O=C(O)[C@H]1CN(C(=O)OCc2ccccc2)CCN1; X2 = O=C(OCc1ccccc1)N1CCN([*:1])[C@H](C(=O)[*:2])C1; NH(2-(imidazol-4-yl)ethyl) = c1ncc(CCN*)[nH]1; X8 = Cn1c[n+](C)cc1C[C@@H](N[*:1])C(=O)[*:2]; dPhe(4-NH2) = Nc1ccc(C[C@@H](N)C(=O)O)cc1; dPiz(1,6-dehydro) = O=C(O)[C@H]1CCC=NN1; NMeI = CC[C@H](C)[C@H](NC)C(=O)O; dNMeF = CN[C@H](Cc1ccccc1)C(=O)O; hPhe = N[C@@H](CCc1ccccc1)C(=O)O; dOrn = NCCC[C@@H](N)C(=O)O; Pip = O=C(O)[C@@H]1CCCCN1; dPip = O=C(O)[C@H]1CCCCN1; Orn = NCCC[C@H](N)C(=O)O; dNMeA = CN[C@H](C)C(=O)O; Dap = NC[C@H](N)C(=O)O; Me2Gly = CN(C)CC(=O)*
# What was measured:
# uterine OT receptors = target: T1, uterine OT receptors (Rattus norvegicus, UniProt P70536); assay: [^3 H]OT binding to uterine OT receptors, crude membrane preparation of uteri from DES-treated rats; conditions: for inhibition at 0.1 µM: @ 100 (nM)
# T1 construct: from tissue; host or cells: uterus of DES-treated rats, crude membranes
# T1 sequence (P70536 1-388): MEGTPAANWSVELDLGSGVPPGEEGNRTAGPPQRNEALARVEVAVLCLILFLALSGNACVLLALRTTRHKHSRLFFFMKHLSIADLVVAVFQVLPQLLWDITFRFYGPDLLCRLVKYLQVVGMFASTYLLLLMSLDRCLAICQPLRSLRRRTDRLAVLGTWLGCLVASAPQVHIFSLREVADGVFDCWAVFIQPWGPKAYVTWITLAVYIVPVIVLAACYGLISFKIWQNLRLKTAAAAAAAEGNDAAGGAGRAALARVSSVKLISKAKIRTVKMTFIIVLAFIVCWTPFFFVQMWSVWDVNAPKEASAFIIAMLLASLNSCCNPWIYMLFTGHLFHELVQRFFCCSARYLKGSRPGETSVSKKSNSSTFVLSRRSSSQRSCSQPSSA
# Description: Competition studies were conducted at equilibrium (60 minutes; 22° C.) using 1 nM [^3 H]OT in the following assay buffer: 50 mM Tris-HCl, 5 mM MgCl2, and 0.1% BSA, pH 7.4.
# AVP-V1 sites = target: T2, AVP-V1 sites (Rattus norvegicus, UniProt P30560); assay: [^3 H]AVP binding to crude membrane preparation of male rat liver (AVP-V1 sites)
# T2 construct: crude membrane preparation of male rat liver (AVP-V1 sites); from tissue; host or cells: male rat liver, crude membranes
# T2 sequence (P30560 whole entry): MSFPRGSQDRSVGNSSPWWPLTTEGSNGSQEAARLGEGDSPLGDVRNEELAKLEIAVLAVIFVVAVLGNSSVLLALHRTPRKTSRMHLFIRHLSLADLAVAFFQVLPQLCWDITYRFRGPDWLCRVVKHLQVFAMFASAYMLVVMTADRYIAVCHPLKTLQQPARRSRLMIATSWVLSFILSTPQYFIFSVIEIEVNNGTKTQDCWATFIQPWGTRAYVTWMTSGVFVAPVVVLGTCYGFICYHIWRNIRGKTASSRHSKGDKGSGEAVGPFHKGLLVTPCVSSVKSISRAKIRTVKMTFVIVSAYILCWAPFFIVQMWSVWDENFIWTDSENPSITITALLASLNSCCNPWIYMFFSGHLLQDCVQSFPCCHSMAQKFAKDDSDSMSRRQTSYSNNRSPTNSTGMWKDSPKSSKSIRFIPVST
# Description: (§1) Nonspecific binding (5-10% of the total binding) was determined using 10 μM unlabeled AVP, and the binding reaction was terminated by filtration as described above for the [^3 H]OT binding assay.
# AVP-V2 sites = target: T3, AVP-V2 sites (Rattus norvegicus, UniProt Q00788); assay: [^3 H]AVP binding to crude membrane preparation of male rat kidney medulla (AVP-V2 sites)
# T3 construct: male rat liver (AVP-V1 sites) or kidney medulla (AVP-V2 sites); from tissue; host or cells: male rat kidney medulla, crude membranes
# T3 sequence (Q00788 whole entry): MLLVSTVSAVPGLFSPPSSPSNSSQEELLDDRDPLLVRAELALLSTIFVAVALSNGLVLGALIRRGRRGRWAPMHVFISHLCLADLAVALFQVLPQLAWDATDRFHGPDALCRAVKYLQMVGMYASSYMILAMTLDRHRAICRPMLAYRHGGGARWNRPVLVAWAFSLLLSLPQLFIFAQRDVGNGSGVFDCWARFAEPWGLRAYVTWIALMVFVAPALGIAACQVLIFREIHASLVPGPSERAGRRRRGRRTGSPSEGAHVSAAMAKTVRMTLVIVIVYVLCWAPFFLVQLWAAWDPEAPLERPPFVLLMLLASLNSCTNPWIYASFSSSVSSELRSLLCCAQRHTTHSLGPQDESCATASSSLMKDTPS
# Description: as §1
# [1] = Receptor Binding Results IC50 (nM) [^3 H]-AVP-V1
# [2] = rat kidney medulla membranes, 2 nM [^3 H]AVP, read-out: Receptor Binding Results IC50 (nM) [^3 H]-AVP-V2
# [3] = rat uterus membranes, 1 nM [^3 H]OT, read-out: Receptor Binding Results IC50 (nM) [^3 H]OT
# [4] = read-out: Receptor Binding Results IC50 (nM) [^3 H]-AVP-V1
# [5] = 1 h, read-out: [^3 H]OT: percent inhibition of radioligand at the given concentration
# [6] = Receptor Binding Results IC50 (nM) [^3 H]OT
# [7] = Receptor Binding Results IC50 (nM) [^3 H]-AVP-V2
IC50 (AVP-V1 sites; [4]) [nM],SMILES,"inhibition at 1 µM (uterine OT receptors; 1 h, @ 1,000 (nM), read-out: [^3 H]OT: percent inhibition of radioligand at the given concentration) [%]",IC50 (AVP-V1 sites; [1]) [nM],IC50 (AVP-V2 sites; [2]) [nM],IC50 (uterine OT receptors; [3]) [nM],inhibition at 0.1 µM (uterine OT receptors; [5]) [%],IC50 (uterine OT receptors; [6]) [nM],IC50 (AVP-V2 sites; [7]) [nM]
,"CC[C@H](C)[C@@H]1NC(=O)[C@@H](Cc2c[nH]c3ccccc23)NC(=O)[C@@H]2CCCN2C(=O)[C@@H](Cc2c[nH]cn2)NC(=O)[C@H](Cc2c[nH]cn2)NC(=O)[C@H]2CCCN2C1=O [Example 94, c-[D-Tryptophanyl-L-isoleucinyl-D-prolyl-L-histidyl-D-histidyl-L-prolyl]] (cyclo(H[dH]P[dW]I[dP]))",64,10000,> 10000,,,,
810,"CC[C@H](C)[C@@H]1NC(=O)[C@@H](Cc2ccccc2)NC(=O)[C@@H]2CCCN2C(=O)[C@@H](Cc2ccccc2)N(C)C(=O)[C@H](CCCN)NC(=O)[C@H]2CCC=NN2C1=O [Example 125, c-[D-Phenylalanyl-L-isoleucyl-D-Δ-piperazyl-L-ornithyl-D-(N-methyl)phenylalanyl-L-prolyl] acetate salt] (cyclo(I[dPiz(1,6-dehydro)][Orn][dNMeF]P[dF]))",,,1600,16,,,
5690,"CC[C@H](C)[C@@H]1NC(=O)[C@@H](Cc2ccccc2)NC(=O)[C@@H]2CCCN2C(=O)[C@@H](Cc2ccccc2)NC(=O)[C@@H]2CCCCN2C(=O)[C@H]2CCCCN2C1=O [Example 103, c-[D-Phenylalanyl-L-isoleucyl-D-pipecolyl-L-pipecolyl-D-phenylalanyl-L-prolyl]] (cyclo(I[dPip][Pip][dF]P[dF]))",,,> 10000,370,,,
,"CC[C@H](C)[C@@H]1NC(=O)[C@@H](Cc2c[nH]c3ccccc23)NC(=O)[C@@H]2CCCN2C(=O)[C@@H](Cc2ccccc2)NC(=O)[C@H]2CN(C(=O)OCc3ccccc3)CCN2C(=O)[C@H]2CCCCN2C1=O [Example 90, c-[D-Tryptophanyl-L-isoleucinyl-D-pipecolyl-D-piperazin-2-yl(4-Cbz)-D-phenylalanyl-L-prolyl]] (cyclo(I[dPip][dPip(4-aza,4-Cbz)][dF]P[dW]))",,> 10000,> 10000,,59,,
,"CC[C@H](C)[C@@H]1NC(=O)[C@@H](Cc2ccccc2)NC(=O)[C@@H]2CCCN2C(=O)[C@@H](Cc2ccc(NC(=O)CN(C)C)cc2)NC(=O)[C@@H]2CCCCN2C(=O)[C@H]2CCCCN2C1=O [Example 49, Cyclo[D-phenylalanyl-L-isoleucyl-D-pipecolyl-L-pipecolyl-D-([N,N-dimethylglycyl]p-amino)phenylalanyl-L-prolyl]] (cyclo(I[dPip][Pip][dPhe(4-NH2)](Me2Gly)P[dF]))",,10000,10000,320,,,
,"CN1C(=O)[C@@H]2CCCCN2C(=O)[C@H]2CCCCN2C(=O)[C@H](CCc2ccccc2)NC(=O)[C@@H](Cc2c[nH]c3ccccc23)NC(=O)[C@@H]2CCCN2C(=O)[C@H]1Cc1ccccc1 [Example 32, Cyclo[D-trytophanyl-L-homophenylalanyl-D-pipecolyl-L-pipecolyl-D-(N^α methyl)phenylalanyl-L-prolyl]] (cyclo(P[dW][hPhe][dPip][Pip][dNMeF]))",,> 10000,> 10000,> 1000,,,
,"CC[C@H](C)[C@@H]1NC(=O)[C@@H](Cc2c[nH]c3ccccc23)NC(=O)[C@@H]2CCCN2C(=O)[C@@H](Cc2c[n+](C)cn2C)NC(=O)[C@@H]2CCCCN2C(=O)[C@H]2CCCCN2C1=O [Example 18, Cyclo[D-tryptophanyl-L-isoleucyl-D-pipecolyl-L-pipecolyl-D-[im-(CH3)2]^+ histidyl-L-prolyl] trifluoroacetate] (cyclo(I[dPip][Pip][X8]P[dW]))",,> 1000,> 10000,450,,,
,"CC[C@H](C)[C@@H]1NC(=O)[C@@H](Cc2ccc(O)cc2)NC(=O)[C@@H]2CCCN2C(=O)[C@@H](Cc2ccccc2)N(C)C(=O)[C@H](CCCCN)NC(=O)[C@H]2CCCCN2C1=O [Example 147, C-[D-Tyrosyl-L-isoleucyl-D-pipecolyl-L-lysyl-D-(N-methyl)phenylalanyl-L-prolyl]] (cyclo(I[dPip]K[dNMeF]P[dY]))",,10000,10000,860,,,
,"CC[C@H](C)[C@@H]1NC(=O)[C@@H](Cc2ccccc2)NC(=O)[C@@H]2CCCN2C(=O)[C@@H](CCCN)NC(=O)[C@@H]2CCCCN2C(=O)[C@H]2CCCCN2C1=O [Example 39, Cyclo[D-phenylalanyl-L-isoleucyl-D-pipecolyl-L-pipecolyl-D-ornithyl-L-prolyl]] (cyclo(I[dPip][Pip][dOrn]P[dF]))",,> 1000,,,28,,> 10000
,"CC[C@H](C)[C@@H]1NC(=O)[C@@H](Cc2ccccc2)NC(=O)[C@@H]2CCCN2C(=O)[C@@H](Cc2ccccc2)N(C)C(=O)[C@H](CN)NC(=O)[C@H]2CCCCN2C1=O [Example 121, c-[D-Phenylalanyl-L-isoleucyl-D-pipecolyl-L-2,3-diaminopropionyl-N-methyl-D-phenylalanyl-L-prolyl]] (cyclo([Dap][dNMeF]P[dF]I[dPip]))",,10000,10000,270,,,
,"CC[C@H](C)[C@@H]1NC(=O)[C@@H](Cc2ccccc2)NC(=O)[C@@H]2CCCN2C(=O)[C@@H](Cc2c[nH]cn2)NC(=O)[C@H]2CN(C(=O)OCc3ccccc3)CCN2C(=O)[C@H]2CCCCN2C1=O [Example 82, c-[D-Phenylalanyl-L-isoleucinyl-D-pipecolyl-D-piperazin-2-yl(4Cbz)-D-histidinyl-L-prolyl]] (cyclo(I[dPip][dPip(4-aza,4-Cbz)][dH]P[dF]))",,10000,10000,73,,,
,"CC[C@H](C)[C@@H]1NC(=O)[C@@H](Cc2ccccc2)NC(=O)[C@@H]2CCCN2C(=O)[C@@H](Cc2ccccc2)N(C)C(=O)[C@H](CC(=O)NCCc2c[nH]cn2)NC(=O)[C@H]2CCCCN2C1=O [Example 120, c-[D-Phenylalanyl-L-isoleucyl-D-pipecolyl-N^β -(imidazolylethyl)-L-asparagyl-N-methyl-D-phenylalanyl-L-prolyl]] (cyclo(D(NH(2-(imidazol-4-yl)ethyl))[dNMeF]P[dF]I[dPip]))",,10000,10000,120,,,
,CC[C@H](C)[C@@H]1NC(=O)[C@@H](Cc2ccccc2)NC(=O)[C@@H]2CCCN2C(=O)[C@@H](Cc2ccccc2)N(C)C(=O)[C@H](Cc2cnc[nH]2)NC(=O)[C@H]2CCCCN2C1=O [Example 13] (cyclo(H[dNMeF]P[dF]I[dPip])),,> 1000,,150,,,> 1000
,"CC(C)C[C@@H]1NC(=O)[C@@H](Cc2c[nH]c3ccccc23)NC(=O)[C@@H]2CCCN2C(=O)[C@@H](Cc2c[nH]cn2)NC(=O)[C@@H]2CCCCN2C(=O)[C@H]2CCCCN2C1=O [Example 21, Cyclo[D-tryptophanyl-L-leucyl-D-pipecolyl-L-pipecolyl-D-histidyl-L-prolyl]] (cyclo(L[dPip][Pip][dH]P[dW]))",,10000,,,,190,> 10000
,"CC[C@H](C)[C@@H]1NC(=O)[C@@H](Cc2ccccc2)NC(=O)[C@@H]2CCCN2C(=O)[C@@H](Cc2ccccc2)NC(=O)[C@@H]2CN(C(=O)OCc3ccccc3)CCN2C(=O)[C@H]2CN(C(=O)OCc3ccccc3)CCN2C1=O [Example 79, c-[D-Phenylalanyl-L-isoleucinyl-D-piperazin-2-yl (4-Cbz)-L-piperazin-2-yl (4-Cbz)-D-phenylalanyl-L-prolyl]] (cyclo(I[dPip(4-aza,4-Cbz)][X2][dF]P[dF]))",,> 10000,10000,1700,,,
,"CC[C@H](C)[C@H]1C(=O)N2CCCC[C@@H]2C(=O)N2CCCC[C@H]2C(=O)N(C)[C@H](Cc2ccccc2)C(=O)N2CCC[C@H]2C(=O)N(C)[C@H](C)C(=O)N1C [Example 16, C-[D-(N^α methyl)alanyl-L-(N^α methyl)isoleucyl-D-pipecolyl-L-pipecolyl-D-(N^α methyl)phenylalanyl-L-prolyl]] (cyclo([NMeI][dPip][Pip][dNMeF]P[dNMeA]))",,> 10000,> 10000,650,,,

SMILES,IC50 (AVP-V1 sites; [4]) [nM],"inhibition at 1 µM (uterine OT receptors; 1 h, @ 1,000 (nM), read-out: [^3 H]OT: percent inhibition of radioligand at the given concentration) [%]",IC50 (AVP-V1 sites; [1]) [nM],IC50 (AVP-V2 sites; [2]) [nM],IC50 (uterine OT receptors; [3]) [nM],inhibition at 0.1 µM (uterine OT receptors; [5]) [%],IC50 (uterine OT receptors; [6]) [nM],IC50 (AVP-V2 sites; [7]) [nM]
"CC[C@H](C)[C@@H]1NC(=O)[C@@H](Cc2c[nH]c3ccccc23)NC(=O)[C@@H]2CCCN2C(=O)[C@@H](Cc2c[nH]cn2)NC(=O)[C@@H]2CCCCN2C(=O)[C@H]2CCCCN2C1=O [Example 17, C-[D-tryptophanyl-L-isolelucyl-D-pipecolyl-L-pipecolyl-D-histidyl-L-prolyl]] (cyclo(I[dPip][Pip][dH]P[dW]))",8200,,,5400,,,14,
